Our source for the IC50 and melting point values is patent US7595403B2, “Benzisothiazol-3-one-carboxylic acid amides as phospholipase inhibitors” (Eli Lilly and Company, priority 2003, dated 2009).

Structures are written as SMILES.

A word on the IC50: it is the concentration needed to halve the response being measured. In general, melting point refers to the temperature, or range, at which the solid turns liquid.

For the first data set, the target named is T1, Recombinant Hepatic Lipase (Homo sapiens, UniProt P11150).
T1 construct: made in house; host or cells: AV12 cells
T1 sequence (P11150 23-499): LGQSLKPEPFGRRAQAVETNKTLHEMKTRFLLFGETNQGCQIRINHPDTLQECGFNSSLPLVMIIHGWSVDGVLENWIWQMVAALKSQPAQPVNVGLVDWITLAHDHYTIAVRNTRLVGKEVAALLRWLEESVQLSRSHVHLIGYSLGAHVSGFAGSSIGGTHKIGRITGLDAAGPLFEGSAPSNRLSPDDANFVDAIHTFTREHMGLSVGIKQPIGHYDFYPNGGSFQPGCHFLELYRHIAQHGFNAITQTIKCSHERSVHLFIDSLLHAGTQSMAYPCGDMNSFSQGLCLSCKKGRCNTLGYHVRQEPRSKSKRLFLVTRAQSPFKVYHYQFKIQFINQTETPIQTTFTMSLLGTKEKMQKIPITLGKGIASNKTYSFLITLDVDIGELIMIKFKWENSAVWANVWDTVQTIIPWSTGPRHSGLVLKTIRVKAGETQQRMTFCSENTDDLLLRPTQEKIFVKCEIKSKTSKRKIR
Nature of the data set: Hepatic Lipase Phospholipase Assay. The following applies: ThioPEG substrate, DTNB read at 412 nm, pH 8.3, 37° C., HL 12.5 nM. The data set is classed as biochemical. As for the experimental part: Hepatic Lipase Phospholipase Assay
Efficacy was determined by testing various compounds of the invention in a hepatic lipase and/or endothelial lipase assay discussed below, and disclosed in U.S. patent application Ser. No. 09/609, 871 filed Jul. 3, 2000 incorporated herein in its entirety for U.S Patent Office purposes.
• Substrate Buffer A: 100 mM Hepes, pH 8.3 at 37° C. • Substrate Buffer B: 100 mM Hepes, pH 8.3 at 37° C. with 6.83 mM Triton X100 • ThioPEG: Molecular wt. of 540 • Recombinant Hepatic Lipase • Thiophospholipid: about 0.42 mM thiophospholipid in chloroform • DTNB Solution: about […] DTNB in DMSO (dimethyl sulfoxide) Hepes Buffer A
For Hepes Buffer A, there is 2.4 g Hepes/100 mL water. Therefore 36 grams of Hepes is dissolved in 1500 mL of water. The mix solution's pH is adjusted to pH83 at 37° C. and brought up to 1500 mL with water. 500 mL of Buffer A is retained for the Protein Buffer.
To the remaining 1000 mL of Hepes Buffer A, 4.49 g of Triton X-100 is added and then the combination mixed on a stir plate. It is optimal that stock Buffer A not be too cold or Triton X-100 will take a long time to go into solution
For 0.42 mM substrate stock, use 0.227 mg of thioPEG/mL of Substrate Buffer B. Approximately 20 mg of sn-1 thiol substituted Phosphatidyl Ethylene Glycol (see Examples for preparation method) is weighed into a vial, such as a scintillation vial. Enough chloroform should be added to make a 2.043 mg/mL solution. Sonicate the solution briefly until well dissolved. Next, pipette 1 mL of chloroform/substrate solution into each scintillation vial. This should give enough substrate for one full 96 well plate. Each vial is dried with nitrogen until solvent removed, swirling each vial simultaneously such that a thin film of substrate will be easily reconstituted in each buffer. Each vial is then frozen.
Daily stock preparation is-performed for 9 mL of substrate (one microtiter plate). On the day of the assay, the substrate vial is removed from the freezer and combined with 9 mL of pre-warmed (37° C.) substrate buffer (the final concentration is 0.227 mg/mL). Place the buffer in a 37° C. water bath. Sonicate for 5 minutes or vortex until solution is clear before use.
The enzyme is stored at −80° C. in 100 or 50 μL portions. A 0.406 mg/mL recombinant hepatic lipase and/or endothelial lipase stock requires a 50-fold dilution. Therefore, to a 50 μl or 100 μl enzyme aliquot, 2450 μl or 4900 μl, respectively, of substrate Buffer A (protein buffer) should be added. The enzyme should then be stored on ice until ready to use. The protein concentration of enzyme is about 0.406 mg/mL.
To make a 20 mg/mL stock solution, 2-3 mg of DTNB is weighed and then mixed with an appropriate amount of 100% DMSO (dimethyl sulfoxide) to make the desired concentration. This mixture is sonicated for five minutes.
The above solution should be diluted 10 fold with substrate Buffer B (concentration now 2 mg/mL). Then to the thioPEG substrate solution, add 60 μl of dilute DTNB per mL of thioPEG substrate solution. Thus for 9 mL of substrate, 540 microliters of dilute DTNB (final concentration in substrate solution=0.11 mg/mL).
The test compound is dissolved in pure DMSO at […]. As shown below in Table 2, assay concentrations are 10, 1, 0.1, 0.33, 0.011, 0.0037, 0.0012 and 0.00041 μM.
Using a spectrometer, DTNB is used as a thiol coloring reagent with an incubator temperature of 37° C. Substrate Buffer B is placed in a 37° C. water bath to pre-warm. The substrate is removed from the freezer and 9 mL of substrate Buffer B, 100 mM Hepes, 6.83 mM Tx-100) is added, sonicated for 5 min. and then kept in a 37° C. water bath. Dilutions of the test compound are next made in preparation for assay.
10 μl of the diluted test compound are transferred via pipette into the wells. Control wells receive 10 μl each of 10% DMSO and enzyme solution, while blank wells receive 10 microliters of 10% DMSO and 10 microliters of saline (no enzyme). […]
Take `CCCCCCNC(=O)n1sc2ccccc2c1=O`: the IC50 amounted to 724 ± 16 nM.
Consider `CC(C)CCCCNC(=O)n1sc2ccccc2c1=O`, for which the half-inhibitory concentration (IC50) is 622 ± 19 nM.
Regarding `CCCCCCCNC(=O)n1sc2ccccc2c1=O`, the IC50 is 757 ± 18 nM.
As for `CCCCCCCCNC(=O)n1sc2ccccc2c1=O`, the IC50 stood at 649 ± 17 nM.
As to `CCCCCCCCCCCCNC(=O)n1sc2ccccc2c1=O`, the IC50 was determined as 933 ± 34 nM.
In the case of `Cc1ccccc1CNC(=O)n1sc2ccccc2c1=O`, the IC50 was 183 ± 6 nM.
The same measure, in the same setting: the same measure for `Cc1cccc(CNC(=O)n2sc3ccccc3c2=O)c1`: 409 ± 14 nM.
For `Cc1ccc(CNC(=O)n2sc3ccccc3c2=O)cc1`, the IC50 amounted to 671 ± 18 nM.
As for `CC(C)NC(=O)n1sc2cc(Cl)ccc2c1=O`, the IC50 was 626 ± 20 nM.
The same measure, in the same setting: the same measure for `CCCCCNC(=O)n1sc2cc(Cl)ccc2c1=O`: 532 ± 10 nM.
Consider `CCCCCCNC(=O)n1sc2cc(Cl)ccc2c1=O`, for which the IC50 stood at 333 ± 8 nM.
As for `O=C(NC1CCCCC1)n1sc2cc(Cl)ccc2c1=O`, the IC50 was determined as 419 ± 7 nM.
Regarding `O=C(NCc1ccccc1)n1sc2cc(Cl)ccc2c1=O`, the IC50 was found to be 893 ± 48 nM.
Regarding `CCCCCNC(=O)n1sc2ccccc2c1=O` [drawing 9], the IC50 turned out to be 879 ± 24 nM.
For the molecule `CCc1cccc(C)c1CNC(=O)n1sc2ccccc2c1=O` [drawing 18], the IC50 turned out to be 237 ± 4 nM.
`Cc1cccc(C(C)C)c1CNC(=O)n1sc2ccccc2c1=O` [drawing 19]: the IC50 was 238 ± 13 nM.
Same read-out and setting: the same measure for `O=C(NCCCc1ccccc1)n1sc2ccccc2c1=O` [drawing 20]: 430 ± 19 nM.
Still for that read-out and setting: the same measure for `O=C(NCCCCc1ccccc1)n1sc2ccccc2c1=O` [drawing 21]: 458 ± 16 nM.
As for `O=C(NCCCCC1CCCCC1)n1sc2ccccc2c1=O` [drawing 22], the IC50 turned out to be 482 ± 21 nM.

Tested on in a further data set: not given
Test: not given
Conditions: not given
`CCNC(=O)n1sc2ccccc2c1=O` [Example 1, 3-Oxo-3H-benzo[d]isothiazole-2-carboxylic acid ethylamide] returned a melting point of 123 to 124 °C.
Same read-out and setting: the same measure for `CCCNC(=O)n1sc2ccccc2c1=O` [Example 2, 3-Oxo-3H-benzo[d]isothiazole-2-carboxylic acid propylamide]: 90 to 91 °C.
The same measure, in the same setting: the same measure for `C=CCNC(=O)n1sc2ccccc2c1=O` [Example 3, 3-Oxo-3H-benzo[d]isothiazole-2-carboxylic acid allylamide]: 116 to 119 °C; for `CCCCCNC(=O)n1sc2ccccc2c1=O` [Example 4, 3-Oxo-3H-benzo[d]isothiazole-2-carboxylic acid pentylamide]: 42 to 44 °C; for `CCc1cccc(C)c1CNC(=O)n1sc2ccccc2c1=O` [Example 13, 3-Oxo-3H-benzo[d]isothiazole-2-carboxylic acid 2-ethyl-6-methyl-benzylamide]: 102 to 104 °C.
Molecule `Cc1cccc(C(C)C)c1CNC(=O)n1sc2ccccc2c1=O` [Example 14, 3-Oxo-3H-benzo[d]isothiazole-2-carboxylic acid 2-isopropyl-6-methyl-benzylamide] showed a melting point of 102 to 103 °C.
`O=C(NCCc1ccccc1)n1sc2ccccc2c1=O` [Example 15, 3-Oxo-3H-benzo[d]isothiazole-2-carboxylic acid phenethylamide] displayed a melting point of 153 to 155 °C.
For the molecule `O=C(NCCCc1ccccc1)n1sc2ccccc2c1=O` [Example 17, 3-Oxo-3H-benzo[d]isothiazole-2-carboxylic acid (3-phenyl-propyl)-amide], the melting point fell in the range of 109 to 111 °C.
The same measure, in the same setting: the same measure for `O=C(NCCCCc1ccccc1)n1sc2ccccc2c1=O` [Example 18, 3-Oxo-3H-benzo[d]isothiazole-2-carboxylic acid (4-phenyl-butyl)-amide]: 119 to 120 °C; for `O=C(NCCCCC1CCCCC1)n1sc2ccccc2c1=O` [Example 19, 3-Oxo-3H-benzo[d]isothiazole-2-carboxylic acid (4-cyclohexyl-butyl)-amide]: 76 to 78 °C.
